# Test system: NMU-induced mammary tumors
# Assay: Prophylaxis of NMU-induced mammary tumors after intraductal injection
# Format: in vivo, Sprague Dawley rats
# Conditions: rat mammary glands, NMU 50 mg/kg i.v. after treatment, monitored 8 months
# Description: The mammary glands (6 on each side) of six virgin 50 day old Sprague Dawley rats were injected with AdHS-tk on the left side and trypan blue on the right side or left untreated. One rat remained completely untreated with the virus or GCV and served as a positive control for NMU-induced tumorigenesis. On the day of surgery, rats were given an intramuscular injection of 5 μg estradiol valerate and were anesthetized with an isofluorane/O2 mixture. The nipples were cannulated with a 33 gauge needle. Twenty μl of AdHS-tk diluted in trypan blue carrier (1 mM MgCl2, 20 μg/ml polybrene in 10% glycerol, 0.4% trypan blue in saline) at a concentration of 5×10^7 particles/μl were injected into the duct. Carrier control mammary glands received 20 μl of trypan blue carrier alone. An animal was considered treated when at least three glands were successfully injected with trypan blue and another three glands were successfully injected with AdHS-tk. The remaining glands were left untreated. Twelve hrs later, the rats were injected with 125 mg/kg body weight GCV twice daily for three days. […] Five to seven days after GCV treatment, the rats were given an intravenous injection of NMU dissolved in 0.05% acetic acid (Ash Stevens, CO; 50 mg NMU/kg body weight) and were subsequently monitored for general health and the appearance of tumors at weekly intervals for 8 months.
smiles,measurement,value
"Nc1nc(O)c2ncn(COC(CO)CO)c2n1 [Ganciclovir, ganciclovir]",% of Glands with Tumor,25.0%
same,No. of Tumors,5

# Source: patent US7196070B2, “Prophylactic and therapeutic treatment of the ductal epithelium of a mammary gland for cancer” (priority 1995, dated 2007)
